In patent US8101572B2, “Methods for promoting wound healing and/or reducing scar formation” (Arizona Board of Regents, A Corporate Body Organized Under …, priority 2003, dated 2012):
Non-standard residues stand in square brackets, D forms with d. No end group written: not given here. pS = N[C@@H](COP(=O)(O)O)C(=O)O

How the values were obtained:
3T3 cells [1] = assay: DNase 1 inhibition assay for monomer g-actin; format: cell-based; conditions: forskolin 10 μM, 30 min, pHSP20 25 μM
Protocol: 3T3 cells were cultured and treated as indicated on the graph (4). Monomer g-actin was biochemically quantitated using a DNase 1 inhibition assay. The level of g-actin in the cell extract that caused 50% inhibition of DNase 1 was estimated from a standard actin curve that was determined using known amounts of actin. *P<0.05 compared to untreated cells.
To confirm that the loss of stress fibers is associated with loss of filamentous (f-) actin and commensurate increases in globular (g-) actin, a DNase 1 inhibition assay was performed (5). 3T3 cells were cultured and treated as indicated (4). Monomer g-actin was biochemically quantitated using a DNase 1 inhibition assay. The level of g-actin in the cell extract that caused 50% inhibition of DNase 1 was estimated from a standard actin curve that was determined using known amounts of actin. […] Thus, transduction of pHSP20 led to similar changes in actin filament dynamics and cellular morphology, as did activation of the upstream adenylate cyclase activator forskolin.

Swiss albino 3T3 cells [2] = assay: f-actin cytoskeletal distribution (Alexa 568 phalloidin, confocal microscopy); format: cell-based; conditions: 30 min, 10 μM LPA, 10 μM forskolin, 25 μM FITC-pHSP20, 25 μM FITC-aHSP20
Protocol: (§1) Unless otherwise stated, all reagents were purchased from Sigma, St. Louis, Mo. Swiss Albino 3T3 fibroblasts (ATCC, Manassas, Va.) were cultured in DMEM supplemented with 10% BCS, 4 mM L-glutamine and 50 μg/ml penicillin-streptomycin and maintained at 37° C., 5% CO2. Cells were seeded and cultured overnight. Culture media was replaced with DMEM containing 0.5% BCS 1 hour prior to experimentation. Cells were incubated with the peptide analogues or reagent (LPA or forskolin) diluted in DMEM containing 0.5% BCS, 30 minutes at 37° C. Cells were then fixed in 4% paraformnaldehyde, permeabilized in 0.25% Triton X-100, and blocked with 1% BSA solution for 1 hour. To determine f-actin cytoskeletal distribution, treated cells were incubated with Alexa 568 phalloidin (Molecular Probes, Eugene, Oreg.) in 1% BSA, 30 minutes. […] Slides were mounted and analyzed by confocal microscopy (Leica TCS SP2, Bannockburn, Ill.). […]
Swiss albino 3T3 cells were either untreated or treated with 10 μM LPA, 10 μM forskolin, 25 μM FITC-pHSP20, or 25 μM FITC-aHSP20 as described (4). Cells were fixed, stained for f-actin using Alexa 568 phalloidin, and visualized by projection images of confocal fluorescence microscopy. […]

Swiss albino 3T3 cells [3] = assay: focal adhesion protein localization (immunostaining for α-actinin, vinculin, paxillin); format: cell-based; conditions: 30 min, 10 μM forskolin, 25 μM pHSP20, 25 μM FITC-aHSP20
Protocol: Unless otherwise stated, all reagents were purchased from Sigma, St. Louis, Mo. Swiss Albino 3T3 fibroblasts (ATCC, Manassas, Va.) were cultured in DMEM supplemented with 10% BCS, 4 mM L-glutamine and 50 μg/ml penicillin-streptomycin and maintained at 37° C., 5% CO2. Cells were seeded and cultured overnight. Culture media was replaced with DMEM containing 0.5% BCS 1 hour prior to experimentation. Cells were incubated with the peptide analogues or reagent (LPA or forskolin) diluted in DMEM containing 0.5% BCS, 30 minutes at 37° C. Cells were then fixed in 4% paraformnaldehyde, permeabilized in 0.25% Triton X-100, and blocked with 1% BSA solution for 1 hour. To determine f-actin cytoskeletal distribution, treated cells were incubated with Alexa 568 phalloidin (Molecular Probes, Eugene, Oreg.) in 1% BSA, 30 minutes. To determine focal adhesion protein localization, treated cells were incubated with primary monoclonal antibodies for α-actinin (1:100, Upstate, Charlottesville, Va.), vinculin (1:100, Sigma) or paxillin (1:100, BD Bioscience-Transduction Labs, San Jose, Calif.) in 1% BSA solution for 2 hours, rinsed in PBS and incubated 60 min with Cy3-goat IgG secondary antibody (Jackson ImmunoResearch, West Grove, Pa.). Slides were mounted and analyzed by confocal microscopy (Leica TCS SP2, Bannockburn, Ill.). […]

[4] = system: motor cortex of Sprague Dawley rats; assay: microwire neural electrode implant, histology for glial scarring (GFAP) and axons (MAP2); format: in vivo; conditions: rat motor cortex, four weeks after implant; peptide as subdural injection (0.1 cc, 100 μm p20) with dextran coated electrodes
Excerpt: Microwire arrays were implanted in the motor cortex of Sprague Dawley rats. Six male Sprague-Dawley rats (300-450 g) were implanted with 2×4 arrays of 50 μm tungsten wire. The electrodes were spaced 500 um apart for a total array size of approximately 1.5 mm×0.5 mm. The implant was centered +3 mm anterior and +2 mm lateral from bregmna. The craniotomy was opened slightly larger than the implant size and an injection (0.1 cc, 0.9% PBS or 100 μm p20) was made into the arachnoid space near the implant site using a 30 gauge needle. The mirowire array was held in a micromanipulator and lowered 2 mm from the surface of the dura. The craniotomy was covered with Gelfoam® and the implant and connector were cemented in place with dental acrylic. Three groups were implanted and evaluated histologically after four weeks. Group one was implanted with untreated electrodes. […] Texas Red labeled anti-Rabbit and Cy5 labeled antij-donkey secondary antibodies were used respectively for visualization.

3T3 cells [5] = assay: focal adhesion assay using interference reflection microscopy; format: cell-based; conditions: cultured 3T3 cells; 100 nM Hep I, 10 μM and 25 μM peptide; FIG. 2
Protocol: Results from the focal adhesion assay using interference reflective microscopy on 3T3 cells treated as described (4). Each condition was tested in triplicate, and an average of 250 cells per coverslip was counted. A cell was scored positive if it contained at least five focal adhesions. Hep I (peptide from thrombospondin 1) was used as a positive control. *P<0.05 compared to untreated cells.
as §1

| Substance | g-actin (monomer) in cell extract (3T3 cells [1]; FIG. 1) | g-actin (monomer) in cell extract (3T3 cells [1]; FIG. 1, listed as PhosphoHSP20 peptide) | cell morphology and stress fibers (f-actin) (Swiss albino 3T3 cells [2]) | focal adhesion accumulations of α-actinin, vinculin, and paxillin (Swiss albino 3T3 cells [3]) | density of axons in the vicinity of the microwire electrodes [4] | glial scarring around electrodes [4] | focal adhesions (cells positive for focal adhesions) (3T3 cells [5]) |
| --- | --- | --- | --- | --- | --- | --- | --- |
| YGRKKRRQRRRWLRRApSAPLPGL (YGRKKRRQRRRWLRRA[pS]APLPGL) [pHSP20, phosphopeptide analogue of HSP20 with HIV Tat protein transduction domain] | led to increases in g-actin | disrupts the actin cytoskeleton | displayed stellate morphology and disrupted stress fibers | displayed a decrease in focal adhesion accumulations of α-actinin, vinculin, and paxillin | a higher density of axons was seen | essentially no scarring was observed | led to disruption of focal adhesions |
| lysophosphatidic acid [reference compound] |  |  | displayed robust stress fibers |  |  |  |  |
